Here are results for twelve compounds from ChEMBL document CHEMBL1128083, “The anti-rheumatic potential of a series of 2,4-di-substituted-4H-naphtho[1,2-b]pyran-3-carbonitriles” (Bioorg Med Chem Lett, 1995).

Data set [1] is filed under the species Oryctolagus cuniculus. In words: Tested for percent inhibition of Neutral metalloprotease in rabbit chondrocytes at 1 uM concentration. The format is cell-based.
Data set [2] is filed under the species Rattus norvegicus. In words: Percent inhibition of Concanavalin A stimulated cell proliferation of rat spleen lymphocytes at 0.001 uM. The format is functional.
Data set [3] is filed under the species Rattus norvegicus. In words: Percent inhibition of Concanavalin A stimulated cell proliferation of rat spleen lymphocytes at 0.1 uM. The format is functional.
The species named for data set [4] is Rattus norvegicus. In words: Percent inhibition of Concanavalin A stimulated cell proliferation of rat spleen lymphocytes at 0.01 uM. Format: functional.
The species named for data set [5] is Rattus norvegicus. In words: Percent inhibition of Concanavalin A stimulated cell proliferation of rat spleen lymphocytes at 10 uM. The format is functional.
The species named for data set [6] is Rattus norvegicus. In words: Percent inhibition of Concanavalin A stimulated cell proliferation of rat spleen lymphocytes at 1 uM. The format is functional.
The species entered for data set [7] is Oryctolagus cuniculus. In words: Tested for percent inhibition of Neutral metalloprotease in rabbit chondrocytes at 0.1 uM concentration. Format: cell-based.
Data set [8] is filed under the species Oryctolagus cuniculus. In words: Tested for percent inhibition of Neutral metalloprotease in rabbit chondrocytes at 10 uM concentration. Format: cell-based.
Data set [9] is described as follows: Maximum concentration in plasma at Tmax. Format: ADME, organism-based.
Data set [10] in a line: Time at which the maximum concentration is achieved. The format is ADME.
The species entered for data set [11] is Rattus norvegicus. In words: Percent reduction in arthritis score was measured in CP-20961 injected rats on day 16. The format is functional. The arrangement: scale not given: the % may be the effect or the level left.
Data set [12] is filed under the species Rattus norvegicus. In words: Percent reduction in arthritis score was measured in CP-20961 injected rats; NR is no reduction. The format is functional, organism-based.
The species named for data set [13] is Oryctolagus cuniculus. In words: Tested for percent inhibition of Neutral metalloprotease in rabbit chondrocytes at 10 uM concentration; toxic. Format: cell-based.
Data set [14] is described as follows: Half life was evaluated. The format is ADME.

By inhibition is commonly meant the relative decrease from the control value, in per cent. With `N#CC1C(=O)NC2=C(CCc3ccccc32)C1c1cccc([N+](=O)[O-])c1` (stereo not drawn), the inhibition in the data set listed under Oryctolagus cuniculus [1] is 36%; in the data set filed under Oryctolagus cuniculus [7] it was -7%; in the data set listed under Oryctolagus cuniculus [8], 20%. Besides, in the data set filed under Rattus norvegicus [2], the inhibition at 0.001 µM was found to be 9%. Moreover, the inhibition at 0.1 µM in the data set filed under Rattus norvegicus [3] came to 6%. Also, in the data set filed under Rattus norvegicus [4], the inhibition at 0.01 µM was determined as 8%. In the data set listed under Rattus norvegicus [5], the inhibition at 10 µM is 22%. Also, the inhibition at 1 µM in the data set listed under Rattus norvegicus [6] amounted to 15%.

For orientation: Cmax means the peak of the concentration-time curve. Usually Tmax stands for the time from dosing to the highest level. On to `N#CC1=C(N2C(=O)CCC2=O)Oc2c(ccc3ccccc23)C1c1cccnc1` (stereo not drawn), for which the inhibition in the data set listed under Oryctolagus cuniculus [1] is 17%; in the data set listed under Oryctolagus cuniculus [8], 25%. Further, the inhibition at 0.001 µM in the data set listed under Rattus norvegicus [2] turned out to be 7%. Also, the inhibition at 0.1 µM in the data set filed under Rattus norvegicus [3] is -5%. The inhibition at 0.01 µM in the data set listed under Rattus norvegicus [4] is -6%. In addition, in the data set filed under Rattus norvegicus [5], the inhibition at 10 µM stood at 87%. The Cmax in [9] turned out to be 55 ng/mL. For the same compound, the inhibition at 1 µM in the data set filed under Rattus norvegicus [6] came to 85%. In data set [10], the Tmax stood at 0.5 h. In the data set listed under Rattus norvegicus [11], this compound returned an Activity of 41%.

Regarding `O=C1CC(c2cccc([N+](=O)[O-])c2)c2ccc3ccccc3c2O1` (stereo not drawn), the inhibition at 0.001 µM in the data set filed under Rattus norvegicus [2] amounted to 19%. The inhibition at 0.1 µM in the data set filed under Rattus norvegicus [3] worked out at 9%. Besides, the inhibition at 0.01 µM in the data set filed under Rattus norvegicus [4] came to 6%. In addition, the inhibition at 10 µM in the data set listed under Rattus norvegicus [5] was determined as 15%. Also, in the data set filed under Rattus norvegicus [6], the inhibition at 1 µM is 2%.

As for `N#CC1=C(N)Oc2c(ccc3ccccc23)C1c1cccnc1` (stereo not drawn), the results for the inhibition in the data set filed under Oryctolagus cuniculus [1], in the data set listed under Oryctolagus cuniculus [7] and in the data set filed under Oryctolagus cuniculus [8] were 83%, 75% and 100%, respectively. In addition, the inhibition at 0.001 µM in the data set listed under Rattus norvegicus [2] was 0%. Further, in the data set filed under Rattus norvegicus [3], the inhibition at 0.1 µM was 89%. Moreover, the inhibition at 0.01 µM in the data set filed under Rattus norvegicus [4] turned out to be 11%. In addition, the inhibition at 1 µM in the data set listed under Rattus norvegicus [6] amounted to 95%.

As to `N#Cc1c(N)nc2c(c1-c1cccc([N+](=O)[O-])c1)CCc1ccccc1-2`, the inhibition in the data set listed under Oryctolagus cuniculus [1] was found to be 36%; in the data set filed under Oryctolagus cuniculus [7], 8%; in the data set filed under Oryctolagus cuniculus [8], 42%. The inhibition at 0.001 µM in the data set listed under Rattus norvegicus [2] turned out to be 13%. Besides, in the data set filed under Rattus norvegicus [3], the inhibition at 0.1 µM turned out to be 23%. In addition, the inhibition at 0.01 µM in the data set listed under Rattus norvegicus [4] was 15%. In addition, in the data set listed under Rattus norvegicus [5], the inhibition at 10 µM came out at 46%. In the data set listed under Rattus norvegicus [6], the inhibition at 1 µM stood at 23%.

With `N#CC1=C(N)OC2=C(CCc3ccccc32)C1c1cccc([N+](=O)[O-])c1` (stereo not drawn), the inhibition in the data set filed under Oryctolagus cuniculus [1] was found to be 76%; in the data set listed under Oryctolagus cuniculus [7] it was 39%; in the data set listed under Oryctolagus cuniculus [8], 104%. The inhibition at 0.001 µM in the data set listed under Rattus norvegicus [2] worked out at 29%. For the same compound, the inhibition at 0.1 µM in the data set listed under Rattus norvegicus [3] is 87%. The inhibition at 0.01 µM in the data set filed under Rattus norvegicus [4] was determined as 58%. Besides, the inhibition at 10 µM in the data set filed under Rattus norvegicus [5] was determined as 99%. Further, in the data set filed under Rattus norvegicus [6], the inhibition at 1 µM was 95%.

For the compound `N#Cc1c(O)nc2c(c1-c1cccc([N+](=O)[O-])c1)CCc1ccccc1-2`, the inhibition in the data set filed under Oryctolagus cuniculus [1] came to 3%; in the data set filed under Oryctolagus cuniculus [7], 36%; in the data set listed under Oryctolagus cuniculus [8], 36%.

As for `N#CC1=C(N2C(=O)CCC2=O)Oc2c(ccc3ccccc23)C1c1ccc(F)c(Cl)c1` (stereo not drawn), the inhibition in the data set filed under Oryctolagus cuniculus [1] amounted to 53%; in the data set filed under Oryctolagus cuniculus [7] it was 26%; in the data set listed under Oryctolagus cuniculus [8] it was 111%. Besides, the inhibition at 0.001 µM in the data set listed under Rattus norvegicus [2] was 18%. Besides, in the data set filed under Rattus norvegicus [3], the inhibition at 0.1 µM stood at 10%. Moreover, the inhibition at 0.01 µM in the data set listed under Rattus norvegicus [4] was -16%. Further, in the data set listed under Rattus norvegicus [5], the inhibition at 10 µM was 98%. The same compound gave a Cmax in data set [9] of 178 ng/mL. Moreover, the inhibition at 1 µM in the data set filed under Rattus norvegicus [6] is 92%. Moreover, the Tmax in data set [10] turned out to be 4 h. Also, the Activity entry in the data set listed under Rattus norvegicus [12] is “No reduction”.

For `N#CC1=C(N)Oc2c(ccc3ccccc23)C1c1ccc(F)c(Cl)c1` (stereo not drawn), the inhibition is 111% in the data set filed under Oryctolagus cuniculus [1], 37% in the data set filed under Oryctolagus cuniculus [7] and 81% in the data set listed under Oryctolagus cuniculus [13]. Further, in the data set listed under Rattus norvegicus [3], the inhibition at 0.1 µM stood at 83%. Also, the inhibition at 0.01 µM in the data set listed under Rattus norvegicus [4] amounted to 38%. In addition, the inhibition at 10 µM in the data set filed under Rattus norvegicus [5] turned out to be 98%. For the same compound, the inhibition at 1 µM in the data set filed under Rattus norvegicus [6] amounted to 86%.

As usually defined, the half-life is the time needed for the level to fall by half in the phase considered. Take `N#CC1=C(N)Oc2c(ccc3ccccc23)C1c1cccc([N+](=O)[O-])c1` (stereo not drawn): the inhibition in the data set listed under Oryctolagus cuniculus [1] turned out to be 76%; in the data set filed under Oryctolagus cuniculus [7] it was 74%; in the data set listed under Oryctolagus cuniculus [8], 102%. In the data set filed under Rattus norvegicus [2], the inhibition at 0.001 µM is 33%. In the data set listed under Rattus norvegicus [3], the inhibition at 0.1 µM was determined as 89%. The inhibition at 0.01 µM in the data set filed under Rattus norvegicus [4] was found to be 73%. Moreover, in data set [14], the half-life is ~1 h. Besides, in the data set listed under Rattus norvegicus [5], the inhibition at 10 µM amounted to 99%. For the same compound, the inhibition at 1 µM in the data set listed under Rattus norvegicus [6] stood at 95%.

Turning to `N#CC1=C(n2cccc2)Oc2c(ccc3ccccc23)C1c1cccc([N+](=O)[O-])c1` (stereo not drawn), the values for the inhibition in the data set filed under Oryctolagus cuniculus [1], in the data set filed under Oryctolagus cuniculus [7] and in the data set filed under Oryctolagus cuniculus [8] were -5%, 1% and 4%, respectively. The inhibition at 0.1 µM in the data set listed under Rattus norvegicus [3] was -7%. The inhibition at 10 µM in the data set filed under Rattus norvegicus [5] is 87%. Besides, in the data set filed under Rattus norvegicus [6], the inhibition at 1 µM came to 82%.

Consider `N#CC1=C(N2C(=O)CCC2=O)Oc2c(ccc3ccccc23)C1c1cccc([N+](=O)[O-])c1` (stereo not drawn), for which the inhibition in the data set filed under Oryctolagus cuniculus [1] turned out to be 69%; in the data set listed under Oryctolagus cuniculus [7] it was 17%; in the data set filed under Oryctolagus cuniculus [8] it was 86%. In addition, in the data set filed under Rattus norvegicus [2], the inhibition at 0.001 µM stood at 9%. In the data set listed under Rattus norvegicus [3], the inhibition at 0.1 µM is -4%. Also, the inhibition at 0.01 µM in the data set filed under Rattus norvegicus [4] stood at 1%. Further, in the data set filed under Rattus norvegicus [5], the inhibition at 10 µM was found to be 97%. For the same compound, in data set [9], the concentration peaked (Cmax) at 5 ng/mL. In the data set filed under Rattus norvegicus [6], the inhibition at 1 µM turned out to be 87%. For the same compound, in data set [10], the time of peak concentration (Tmax) worked out at 6 h. The Activity in the data set filed under Rattus norvegicus [11] was 48%.
